The values below come from PMC8985094, “Chemical constituents from Carica papaya Linn. leaves as potential cytotoxic, EGFR^wt and aromatase (CYP19A) inhibitors; a study supported by molecular docking” (RSC Advances, 2022).

SMILES strings stand for the structures. Like-named read-outs stand apart in the source and are kept apart here.

The IC50 is the concentration that inhibits the measured activity by half.

One assay concerns the target T1, aromatase (CYP19A) (Homo sapiens, UniProt P11511).
T1 construct: purchased Bio Vision
T1 sequence (P11511 1-503): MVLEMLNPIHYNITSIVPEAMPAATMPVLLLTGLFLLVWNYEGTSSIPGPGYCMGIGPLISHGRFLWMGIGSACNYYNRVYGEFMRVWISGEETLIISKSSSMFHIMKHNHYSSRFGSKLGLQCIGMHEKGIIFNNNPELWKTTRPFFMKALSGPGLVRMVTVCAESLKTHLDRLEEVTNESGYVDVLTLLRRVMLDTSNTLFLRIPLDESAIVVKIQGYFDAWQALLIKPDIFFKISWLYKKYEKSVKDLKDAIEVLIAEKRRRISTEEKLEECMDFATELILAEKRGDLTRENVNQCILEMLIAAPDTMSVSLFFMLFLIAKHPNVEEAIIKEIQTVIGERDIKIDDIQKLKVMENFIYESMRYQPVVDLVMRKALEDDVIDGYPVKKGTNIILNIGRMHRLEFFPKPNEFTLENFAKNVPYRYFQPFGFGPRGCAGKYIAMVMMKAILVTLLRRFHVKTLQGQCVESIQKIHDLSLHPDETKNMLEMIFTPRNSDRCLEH
As to the kind of experiment: Aromatase (CYP19A) inhibitor screening kit (fluorometric). Format: biochemical. As to the method: Breast cancer is mostly reliant on estrogen or progesterone, especially in postmenopausal females. […] Aromatase is the key enzyme that acts on androgen precursors for the synthesis of estrogen. Aromatase inhibitors are used to either block the production of estrogen or block the action of estrogen on its receptors and for treatment of estrogen dependant breast cancer.[32,33]
The compounds were dissolved in DMSO in concentrations ranging from 10 to 10^4 nM. The recombinant human aromatase stock was prepared according to the protocol and the samples were added and the plate was incubated for 10 min at 37 °C to allow tested compounds to interact with the aromatase.
(§1) Results are expressed as mean ± standard deviation (SD) based on triplicate experiments. The IC50 values of the tested compounds were determined using curve fitting in the R programming language and associated packages including Magrittr,[45] drc[46] and ggplot2.[47] Graphs and figures were generated using R console and PyMOL (PyMOL Molecular Graphics System, Schrödinger).

Another assay concerns MCF-7 cell line. As to the kind of experiment: MTT cytotoxicity assay in breast cancer cell line (MCF-7). Format: cell-based. As to conditions: Homo sapiens, read-out: IC50 on MCF-7 cell lines. The procedure: The cytotoxic effect of the isolated compounds from C. papaya on MCF-7 cells line was evaluated using MTT assay which measures metabolic activity as an indicator of cellular viability and proliferation.
Briefly, breast cancer cell line (MCF-7) were obtained from American Type Culture Collection and cultured in DMEM medium (Invitrogen/Life Technologies) supplemented with 10% FBS (Hyclone, USA). Insulin (10 μg mL^−1, Sigma-Aldrich, USA) and 1% penicillin–streptomycin. the cells were seeded in 96-well plates (VWR, Switzerland) at cell density 1.2–1.8 × 10^4 cells per well. […] After treatments, the medium was removed from all wells of the plate and 20 μL of the MTT reagent (Sigma-Aldrich, USA) (0.5 mg mL^−1) in PBS was added and incubated for 3.5 h at 37 °C. The solution was removed and 50 μL of DMSO was added, incubated for 5 min and the absorbance was measured at 570 nm.
as §1
Background: Tetrazolium dyes change colour on reduction, which living cells bring about.

The next assay deals with EGFR^wt kinase (Homo sapiens, UniProt P00533). As to the kind of experiment: EGFR^wt kinase inhibition assay (BPS Kinase Assay Kit, Kinase-Glo).
The mark [1] stands for this setting: in vitro enzymatic inhibition, recombinant human aromatase, mean ± SD, read-out: IC50 Aromatase.
[2] abbreviates: MCF7, MTT assay, 24 h treatment, mean ± SD.

Chain of EGFR^wt kinase (P00533 25-1210): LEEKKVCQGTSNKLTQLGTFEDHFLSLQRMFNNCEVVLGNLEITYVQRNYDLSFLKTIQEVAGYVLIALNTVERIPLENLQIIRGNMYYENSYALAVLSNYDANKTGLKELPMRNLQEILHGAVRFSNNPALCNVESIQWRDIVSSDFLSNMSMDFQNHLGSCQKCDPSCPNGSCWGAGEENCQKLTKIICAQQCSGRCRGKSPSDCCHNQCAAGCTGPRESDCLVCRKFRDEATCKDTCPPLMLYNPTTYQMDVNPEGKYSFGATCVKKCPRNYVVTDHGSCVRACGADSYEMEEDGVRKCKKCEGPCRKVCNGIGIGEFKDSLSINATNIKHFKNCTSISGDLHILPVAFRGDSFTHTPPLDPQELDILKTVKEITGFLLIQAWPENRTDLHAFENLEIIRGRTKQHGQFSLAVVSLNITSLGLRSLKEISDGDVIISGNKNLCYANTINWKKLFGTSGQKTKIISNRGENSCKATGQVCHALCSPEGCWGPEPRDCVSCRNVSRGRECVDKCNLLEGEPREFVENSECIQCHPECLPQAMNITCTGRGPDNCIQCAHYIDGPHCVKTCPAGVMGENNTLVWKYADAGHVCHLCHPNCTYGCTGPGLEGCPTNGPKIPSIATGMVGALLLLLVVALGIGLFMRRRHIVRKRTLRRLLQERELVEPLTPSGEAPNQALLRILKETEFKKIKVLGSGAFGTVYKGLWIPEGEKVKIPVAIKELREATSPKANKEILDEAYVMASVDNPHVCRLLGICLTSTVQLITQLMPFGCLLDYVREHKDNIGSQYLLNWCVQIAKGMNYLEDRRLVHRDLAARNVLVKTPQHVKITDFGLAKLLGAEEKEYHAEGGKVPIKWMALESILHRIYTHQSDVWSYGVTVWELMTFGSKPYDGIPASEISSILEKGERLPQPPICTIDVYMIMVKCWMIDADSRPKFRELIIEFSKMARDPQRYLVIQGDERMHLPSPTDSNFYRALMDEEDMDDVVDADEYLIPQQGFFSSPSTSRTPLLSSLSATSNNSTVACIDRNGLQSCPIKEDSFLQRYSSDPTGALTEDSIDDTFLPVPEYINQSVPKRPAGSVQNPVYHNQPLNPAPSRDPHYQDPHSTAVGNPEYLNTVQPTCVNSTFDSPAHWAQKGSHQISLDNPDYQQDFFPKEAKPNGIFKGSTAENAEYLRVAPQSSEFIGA
Procedure for EGFR^wt kinase: Then, the reaction was stopped by the addition of a detecting reagent (Kinase-Glo Max reagent), followed by incubation at room temperature for another 15 min. Finally, luminescence was measured using the microplate Robonik P2000 ELISA Reader.

Consider `C[C@@H]1N[C@@H]2CCCCCCCC(=O)O[C@H]3CC[C@@H](CCCCCCCC(=O)O[C@H]1CC2)N[C@H]3C` [Compound 1, carpaine], for which the IC50 was found to be 108 ± 6.32 nM against aromatase (CYP19A); 13700 ± 780 nM in the assay with MCF-7 cell line (MCF7, 24 h); 47.6 ± 2.4 nM against EGFR^wt kinase.
On to `COC(=O)c1cc(O)c(O)c(O)c1` [Compound 2, methyl gallate], for which the half-inhibitory concentration (IC50) worked out at 94.1 ± 5.51 nM on aromatase (CYP19A) (setting [1]), 1110 ± 60 nM in the assay with MCF-7 cell line (setting [2]) and 37.3 ± 1.9 nM at EGFR^wt kinase.
Consider `CC1(C)C[C@H](O)C[C@@]2(C)OC(=O)C=C12` [Compound 3, loliolide], for which the IC50 at aromatase (CYP19A) (setting [1]) is 208 ± 12.2 nM; with MCF-7 cell line (setting [2]), 28200 ± 1610 nM; on EGFR^wt kinase, 68.8 ± 3.5 nM.
Regarding `C[C@@H]1O[C@@H](OC[C@H]2O[C@@H](Oc3c(-c4ccc(O)c(O)c4)oc4cc(O)cc(O)c4c3=O)[C@H](O)[C@@H](O)[C@@H]2O)[C@H](O)[C@H](O)[C@H]1O` [Compound 4, quercetin-3-O-rutinoside], the IC50 on aromatase (CYP19A) (setting [1]) turned out to be 148 ± 8.64 nM; in the assay on MCF-7 cell line (setting [2]), 25600 ± 1460 nM; on EGFR^wt kinase, 44.5 ± 2.3 nM.
Turning to `C[C@@H]1O[C@@H](OC[C@H]2O[C@@H](Oc3c(-c4ccc(O)cc4)oc4cc(O)cc(O)c4c3=O)[C@H](O[C@@H]3O[C@@H](C)[C@H](O)[C@@H](O)[C@H]3O)[C@@H](O)[C@@H]2O)[C@H](O)[C@H](O)[C@H]1O` [Compound 5, kaempferol 3-O-(2′′,6′′-di-α-O-rhamnopyranosyl)-β-glucopyranoside], the results for the IC50 at aromatase (CYP19A) (setting [1]), in the assay with MCF-7 cell line (setting [2]) and at EGFR^wt kinase were 77.4 ± 4.53 nM, 2470 ± 140 nM and 89.6 ± 4.6 nM, respectively.
For the compound `C[C@@H]1O[C@@H](O[C@H]2[C@H](Oc3c(-c4ccc(O)cc4)oc4cc(O)cc(O)c4c3=O)O[C@H](CO)[C@@H](O)[C@@H]2O)[C@H](O)[C@H](O)[C@H]1O` [Compound 6, kaempferol 3-O-(2′′-O-α-L-rhamnopyranosyl)-β-D-glucopyranoside], the results for the IC50 on aromatase (CYP19A) (setting [1]), in the assay on MCF-7 cell line (setting [2]) and against EGFR^wt kinase were 335 ± 19.6 nM, 3580 ± 200 nM and 64.5 ± 3.3 nM, respectively.
With `O=c1c(O[C@@H]2O[C@H](CO)[C@@H](O)[C@H](O)[C@H]2O)c(-c2ccc(O)c(O)c2)oc2cc(O)cc(O)c12` [Compound 7, quercetin-3-O-β-D-glucopyranoside], the IC50 was determined as 354 ± 20.7 nM on aromatase (CYP19A) (setting [1]), 13100 ± 750 nM in the assay on MCF-7 cell line (setting [2]) and 83.4 ± 4.2 nM at EGFR^wt kinase.
As to `C[C@@H]1O[C@@H](OC[C@H]2O[C@@H](Oc3c(-c4ccc(O)cc4)oc4cc(O)cc(O)c4c3=O)[C@H](O)[C@@H](O)[C@@H]2O)[C@H](O)[C@H](O)[C@H]1O` [Compound 8, kaempferol-3-O-rutinoside], the 50% inhibitory concentration (IC50) was determined as 92.8 ± 5.44 nM at aromatase (CYP19A) (setting [1]), 4940 ± 280 nM in the assay with MCF-7 cell line (setting [2]) and 41.1 ± 2.1 nM on EGFR^wt kinase.
As to `COc1cc(-c2oc3cc(O)cc(O)c3c(=O)c2OC2OC(CO)C(O)C(O)C2O)ccc1O` [Compound 9, isorhamnetin 3-O-β-D-glucopyranoside], the results for the IC50 on aromatase (CYP19A) (setting [1]), in the assay with MCF-7 cell line (setting [2]) and against EGFR^wt kinase were 436 ± 25.6 nM, 9510 ± 540 nM and 100 ± 5.1 nM, respectively.
